Consider one compound from patent publication US9371265B2, “Compositions and methods related to inhibitors of JAK kinase” (EP PHARMA, INC., priority 2012, dated 2016).

SMILES strings stand for the structures.

The subject of one test is CD30. Description: CD30 cell surface expression in SU-DHL-1 cells (flow cytometry). The settings on record: 24 hours. It is filed as cell-based, human. From the text: FIGS. 6A-6B. EP009 treatment disrupts constitutive JAK3/STAT3 pathway activation and down-regulates CD30 cell surface expression in human ALCL cells. (A) Kit225 (lane a), SUP-M2 (lane b), Karpas299 (lane c), DEL (lane d) and SU-DHL-1 (lane e) total cell lysates were separated by 7.5% SDS-PAGE (upper panel) or were immunoprecipitated (IP) with JAK3 antibodies (lower panel) and separated on 7.5% SDS-PAGE, and then subjected to Western blot (WB) analysis with the indicated antibodies. (B) SU-DHL-1 cells were treated with vehicle (PBS; lane a) or increasing amounts of EP009 (0-40 μM; lanes b-e) for 12 hours. Cells were then lysed, clarified, and immunoprecipitated (IP) with anti-JAK3 (α-JAK3), and subjected to Western blot (WB) analysis with anti-phosphotyrosine (α-pY). […] Values represent pSTAT mean fluorescence intensity (MFI) normalized to corresponding GAPDH MFI, while error bars represent the standard deviation (n=2). Statistical significance was determined using Student's t-test. […] Cells were then analyzed by flow cytometry for CD30 expression. […]
Cells were treated in the absence or presence of the indicated concentrations of EP009 for 24 hours, and stained with FITC-labeled mouse anti-human CD30 (Millipore). Stained cells were analyzed by flow cytometry (Cytomics FC500, Beckman Coulter) and quantitated with CXP analysis software version 2.2 (Beckman Coulter) as previously described.24
On the technique in general: In flow cytometry, cells or beads pass a laser one at a time.

The subject of another test is IκBα. Description: Phospho-IκBα in SU-DHL-1 cells (Luminex multiplex). It is filed as cell-based, human. The settings on record: 24 hours. As for the experimental part: FIGS. 8A-8F. Effect of EP009 on ALCL cells is mediated through selective activation of ERK1/2 and JNK1/2 stress signaling pathways, and inhibition of p70 S6 kinase growth signaling pathways. SU-DHL-1 cells were treated with vehicle (PBS) or increasing amounts of EP009 (0-50 μM) for 24 hours. Cells were then lysed, clarified, and subjected to Luminex multiplex analysis to detect phosphorylated (A) ERK1/2, (B) JNK1/2, (C) p70 S6 kinase, (D) IκBα, (E) CREB, and (F) p38. Values represent mean fluorescence intensity (MFI) normalized to corresponding GAPDH MFI, while error bars represent the standard deviation (n=2). Representative data from two independent experiments are shown. Statistical significance was determined using Student's t-test. (*, p<0.05).
The MILLIPLEX MAP 8-plex Multi-Pathway Signaling Phosphoprotein kit (Millipore) was used to detect phosphorylated ERK1/2 (Thr185/Tyr187), STAT3 (Ser727), JNK1/2 (Thr183/Tyr185), p70 S6 kinase (Thr412), IκBα (Ser32), STAT5A/B (Tyr694/699), CREB (Ser133), and p38 (Thr180/Tyr182). The MILLIPLEX MAP 5-plex STAT Phosphoprotein kit (Millipore) was used to detect phosphorylated STAT1 (Tyr701), STAT2 (Tyr690), STAT3 (Tyr705), STAT5A/B (Tyr694/699), and STAT6 (Tyr641). The MILLIPLEX MAP Human Apoptosis 3-plex kit (Millipore) was used to detect cleaved PARP, cleaved Caspase 3, and total GAPDH for protein normalization.

The target of the next test is AURKB (Homo sapiens, UniProt Q96GD4). Put plainly: Kinase panel: AURKB. It is filed as biochemical. The settings on record: 10 μM EP009. As for the experimental part:
(§1) Achieving JAK3 selectivity remains a significant challenge in the development of new small molecules for the treatment of cancer and immune-derived diseases. As such, the inventors employed cell-based screening assays of small-molecule libraries based upon the chemical scaffold of the established JAK3 inhibitor NC1153 (Stepkowski et al., J Immunol. (2005), 175(7):4236-4246) EP009 (FIG. 2A) was selected as a lead compound due to improved intrinsic stability (>95% purity in various solvents at 37° C. for 24 hours; FIG. 3) and high-degree of JAK3 selectivity. To test JAK3 versus JAK2 specificity of EP009, the IL-2/JAK3-dependent Kit225, and IL-3/JAK2-dependent BaF/3 cell lines were used. Kit225 and BaF/3 cells growing in the presence of IL-2 or IL-3, respectively, were treated with ascending concentrations of EP009 for 12 hours and cellular JAK3 and JAK2 tyrosine phosphorylation levels detected by Western blot analysis (FIGS. 2B and 2C). Following densitometric analysis, EP009 was determined to dose-dependently reduce IL-2-mediated JAK3 tyrosine phosphorylation with a cellular 50% inhibitory concentration (IC50) between 10 and 20 μM (FIG. 2B). […] To globally evaluate specificity, the inhibitory activity of EP009 was measured against a panel of protein kinases distributed throughout the kinome using the scanEDGE profiling service (KINOMEscan). […]

For another test, the target named is CDK11 (Homo sapiens, UniProt Q9BWU1). Put plainly: Kinase panel: CDK11. It is filed as biochemical. As to conditions: 10 μM EP009. As for the experimental part:
as §1

A further test concerns the target CDK3 (Homo sapiens, UniProt Q00526). Description: Kinase panel: CDK3. It is filed as biochemical. The settings on record: 10 μM EP009. As for the experimental part: as §1
The target in a further test is DCAMKL1 (Homo sapiens, UniProt O15075). Description: Kinase panel: DCAMKL1. It is filed as biochemical. As to conditions: 10 μM EP009. As for the experimental part: as §1
The target of the next test is PRKCE (Homo sapiens, UniProt Q02156). Description: Kinase panel: PRKCE. It is filed as biochemical. The settings on record: 10 μM EP009. As for the experimental part: as §1
PRKCE, sequence (Q02156 whole entry): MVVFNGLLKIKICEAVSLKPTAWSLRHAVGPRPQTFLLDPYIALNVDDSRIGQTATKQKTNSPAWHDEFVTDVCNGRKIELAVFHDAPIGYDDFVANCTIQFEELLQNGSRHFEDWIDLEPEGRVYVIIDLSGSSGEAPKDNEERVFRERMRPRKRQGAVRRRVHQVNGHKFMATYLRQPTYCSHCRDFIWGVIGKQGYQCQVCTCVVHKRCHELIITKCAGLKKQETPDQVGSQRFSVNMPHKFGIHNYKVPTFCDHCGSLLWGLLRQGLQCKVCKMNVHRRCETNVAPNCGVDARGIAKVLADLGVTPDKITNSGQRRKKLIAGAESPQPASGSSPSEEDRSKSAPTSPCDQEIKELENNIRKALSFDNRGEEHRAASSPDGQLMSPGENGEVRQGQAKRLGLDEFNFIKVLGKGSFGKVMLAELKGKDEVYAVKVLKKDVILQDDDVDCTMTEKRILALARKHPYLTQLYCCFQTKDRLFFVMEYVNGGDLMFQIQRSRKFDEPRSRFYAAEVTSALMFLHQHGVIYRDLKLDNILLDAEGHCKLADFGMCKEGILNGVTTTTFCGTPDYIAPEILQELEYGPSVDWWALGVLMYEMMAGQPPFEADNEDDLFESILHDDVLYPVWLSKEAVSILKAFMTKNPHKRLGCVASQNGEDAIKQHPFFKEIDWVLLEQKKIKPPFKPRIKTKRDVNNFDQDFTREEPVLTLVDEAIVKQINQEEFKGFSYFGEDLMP

CDK11, sequence (Q9BWU1 whole entry): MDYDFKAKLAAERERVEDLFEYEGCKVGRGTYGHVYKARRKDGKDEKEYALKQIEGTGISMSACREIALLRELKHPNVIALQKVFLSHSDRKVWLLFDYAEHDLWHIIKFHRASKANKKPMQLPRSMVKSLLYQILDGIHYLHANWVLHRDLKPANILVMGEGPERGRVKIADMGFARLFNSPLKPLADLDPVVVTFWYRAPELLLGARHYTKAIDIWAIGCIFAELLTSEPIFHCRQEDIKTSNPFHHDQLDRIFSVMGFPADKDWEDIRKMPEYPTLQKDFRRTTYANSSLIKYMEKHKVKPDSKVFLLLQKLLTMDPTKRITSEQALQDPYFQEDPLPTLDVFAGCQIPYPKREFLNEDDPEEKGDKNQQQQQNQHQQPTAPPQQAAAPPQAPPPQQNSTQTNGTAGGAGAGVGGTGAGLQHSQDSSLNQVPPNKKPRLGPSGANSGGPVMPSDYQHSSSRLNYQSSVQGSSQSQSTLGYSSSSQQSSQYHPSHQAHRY
DCAMKL1, sequence (O15075 whole entry): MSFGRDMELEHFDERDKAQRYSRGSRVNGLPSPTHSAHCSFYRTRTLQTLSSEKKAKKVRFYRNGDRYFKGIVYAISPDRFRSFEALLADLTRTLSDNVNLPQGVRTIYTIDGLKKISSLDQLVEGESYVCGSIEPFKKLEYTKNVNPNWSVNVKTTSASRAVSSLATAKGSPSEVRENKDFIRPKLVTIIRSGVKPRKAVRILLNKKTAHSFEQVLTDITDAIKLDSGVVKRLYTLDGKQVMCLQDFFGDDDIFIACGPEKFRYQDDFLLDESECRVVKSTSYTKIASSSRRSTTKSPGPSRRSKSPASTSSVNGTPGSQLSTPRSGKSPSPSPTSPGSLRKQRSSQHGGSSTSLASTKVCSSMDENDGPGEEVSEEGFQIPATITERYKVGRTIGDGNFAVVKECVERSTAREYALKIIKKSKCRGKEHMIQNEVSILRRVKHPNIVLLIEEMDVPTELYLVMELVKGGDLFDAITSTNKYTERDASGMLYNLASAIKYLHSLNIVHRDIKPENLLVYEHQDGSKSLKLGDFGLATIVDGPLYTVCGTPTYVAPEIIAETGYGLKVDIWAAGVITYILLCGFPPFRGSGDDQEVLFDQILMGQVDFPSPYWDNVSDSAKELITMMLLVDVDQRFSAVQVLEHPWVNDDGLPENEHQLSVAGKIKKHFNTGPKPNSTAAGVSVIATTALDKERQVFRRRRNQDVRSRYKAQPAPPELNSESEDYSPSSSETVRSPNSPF
AURKB, sequence (Q96GD4 whole entry): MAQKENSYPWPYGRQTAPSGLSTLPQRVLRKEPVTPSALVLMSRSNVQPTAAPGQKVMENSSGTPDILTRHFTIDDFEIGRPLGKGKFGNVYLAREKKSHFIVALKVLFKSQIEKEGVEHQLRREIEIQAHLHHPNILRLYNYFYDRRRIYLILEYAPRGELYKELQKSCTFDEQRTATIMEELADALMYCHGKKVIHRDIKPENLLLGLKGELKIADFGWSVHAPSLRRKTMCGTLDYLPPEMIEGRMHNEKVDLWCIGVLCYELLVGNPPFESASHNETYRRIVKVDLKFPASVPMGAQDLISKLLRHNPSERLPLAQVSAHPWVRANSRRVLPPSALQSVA
CDK3, sequence (Q00526 whole entry): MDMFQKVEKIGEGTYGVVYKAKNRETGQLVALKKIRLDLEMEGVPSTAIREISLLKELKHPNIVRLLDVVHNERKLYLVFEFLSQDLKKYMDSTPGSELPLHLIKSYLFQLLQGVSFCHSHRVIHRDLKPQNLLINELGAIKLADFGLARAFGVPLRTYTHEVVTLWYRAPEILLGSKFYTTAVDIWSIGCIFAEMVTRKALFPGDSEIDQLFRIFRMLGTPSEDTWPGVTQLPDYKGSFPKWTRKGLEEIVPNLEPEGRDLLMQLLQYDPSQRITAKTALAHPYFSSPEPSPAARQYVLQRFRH

Take `C=C1CCCCCCCCCC(CO)C1=O` (stereo not shown) [EP009, 2-(Hydroxymethyl)-12-methylenecyclododecanone]: in the test with CD30, the “effect on CD30 surface expression” value is recorded as “dose-dependent CD30 down-regulation”. Further, in the test with IκBα, the IκBα phosphorylation status entry is “No statistically significant change”. Besides, the “Kinase Activity (% of Control)” value is listed as 99 % of Control on AURKB; 100 % of Control at CDK11; 100 % of Control at CDK3; 100 % of Control on DCAMKL1; 100 % of Control at PRKCE.
